Assay results from PMC7687371, “Quantitative in Vitro to in Vivo Extrapolation (QIVIVE) for Predicting Reduced Anogenital Distance Produced by Anti-Androgenic Pesticides in a Rodent Model for Male Reproductive Disorders” (Environmental Health Perspectives, 2020).
pIC50: −log10 of the molar value. Where two headings read alike, the source gives them in different places.

Key:
[1] = biological target: T1, androgen receptor (AR) (Homo sapiens, UniProt P10275); parameters: method as in Orton et al. (2011); settings: ref Orton et al. (2011), cited from earlier work
T1 construct: host or cells: AR-EcoScreen cells
T1 sequence (P10275 1-920): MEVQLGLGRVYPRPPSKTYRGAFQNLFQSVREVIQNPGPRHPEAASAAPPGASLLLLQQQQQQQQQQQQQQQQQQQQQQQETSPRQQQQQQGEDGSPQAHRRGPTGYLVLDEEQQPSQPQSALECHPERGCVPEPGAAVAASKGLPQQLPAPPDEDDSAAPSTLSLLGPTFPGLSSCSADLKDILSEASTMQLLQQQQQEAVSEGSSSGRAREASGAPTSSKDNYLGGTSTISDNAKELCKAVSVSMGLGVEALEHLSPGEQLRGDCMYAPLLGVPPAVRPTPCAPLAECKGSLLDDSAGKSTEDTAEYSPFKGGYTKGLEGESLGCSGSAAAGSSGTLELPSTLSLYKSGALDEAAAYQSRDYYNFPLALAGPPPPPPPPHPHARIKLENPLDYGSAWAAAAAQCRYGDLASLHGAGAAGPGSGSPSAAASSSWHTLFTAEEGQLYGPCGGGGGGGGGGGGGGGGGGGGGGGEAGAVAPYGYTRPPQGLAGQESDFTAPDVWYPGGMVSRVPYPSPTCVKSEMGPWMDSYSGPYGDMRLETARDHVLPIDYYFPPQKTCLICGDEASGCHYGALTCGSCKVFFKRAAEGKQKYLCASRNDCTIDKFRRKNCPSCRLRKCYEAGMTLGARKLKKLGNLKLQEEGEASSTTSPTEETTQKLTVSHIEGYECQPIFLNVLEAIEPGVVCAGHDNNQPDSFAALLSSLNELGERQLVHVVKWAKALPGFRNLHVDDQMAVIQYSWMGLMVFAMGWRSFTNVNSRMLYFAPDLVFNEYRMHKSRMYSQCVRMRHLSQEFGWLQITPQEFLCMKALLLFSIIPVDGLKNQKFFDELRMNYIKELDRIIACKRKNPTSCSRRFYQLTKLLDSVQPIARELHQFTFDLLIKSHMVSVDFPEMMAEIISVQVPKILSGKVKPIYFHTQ

[2] = tested on: NCI-H295R cells; assay: Cell viability (MTT) in the H295R assay; type: cell-based, human; settings: human, 48 h
Procedure: To capture effects on steroid hormone synthesis (testosterone and androstendione), we tested all 12 pesticides in the H295R assay with the human adrenocortical carcinoma cell line NCI-H295R (American Type Culture Collection no. CRL-2,128, LGC Standards), as previously described ([Hecker et al. 2011]; [Rosenmai et al. 2013]). In brief, cells were cultured in DMEM/F-12 +glutamine medium with HEPES buffer (Invitrogen) containing 1% insulin-transferrin-sodium selenite plus Premix (VWR) and 2.5% Nu-Serum (BD Bioscience) at 37°C in a 5% CO2 atmosphere. The day before exposure, cells were seeded 300,000 per well in clear 24-well plates (VWR Corning). Cells were exposed for 48 h to control (Forskolin: 1μM , 10μM (Sigma-Aldrich); and Prochloraz: 0.3μM , 3μM (VWR-Bie and Berntsen) or test compounds. The vehicle (DMSO) concentration was kept constant in all wells (0.1%). After 48 h, the exposure culture medium was removed and stored at –80°C until the levels of 10 steroid hormones (testosterone, androstenedione, aldosterone, corticosterone, cortisol, dehydroepiandrosterone, 17α-hydroxyprogesterone , progesterone, estrone, and 17β-estradiol ) were quantified using the high-performance liquid chromatography–tandem mass spectrometry method described elsewhere ([Mortensen and Pedersen 2007]). Minor modifications were made to accommodate a smaller sample size and to include more hormones. […]

[3] = biological target: T1, androgen receptor (AR); assay: AR-EcoScreen androgen receptor transcriptional activation assay (AR antagonism); type: cell-based
Procedure: Experiments were run with three technical replicates and repeated three times. The mean value of technical replicates represents one biological replicate. AR-EcoScreen™ cells (JCRB1328; Japanese Collection of Research Bioresources) were grown in CellBIND® surface cell culture flasks (Corning Inc.) in growth medium consisting of Gibco® Dulbecco’s Modified Eagle’s Medium/F-12 (DMEM/F-12) Nutrient Mixture with L-glutamine and 4-(2-hydroxyethyl)-1-piperazineethanesulfonic acid (HEPES) and without phenol red supplemented with 5% fetal bovine serum (FBS), 1% penicillin-streptomycin, 200μg/mL Zeocin™ selection reagent, and 100μg/mL Hygromycin B (all reagents from Invitrogen, Life Technologies). The cells were incubated at 37°C in a humidified atmosphere of 5% carbon dioxide ( CO2 ) and 95% air. On the day before the experiment, cells were plated in white 96-well plates (Corning Inc.) at a density of 9,000 cells/well in assay medium consisting of Gibco® DMEM/F-12 Nutrient Mixture medium, 1% penicillin-streptomycin, with 5% dextran-coated charcoal-treated FBS (all reagents from Invitrogen, Life Technologies). On the following day, the medium was changed to assay medium containing the known AR agonist R1881 (Perkin Elmer) in 2-fold serial dilutions from 0.008 to 1 nM or the known AR antagonist hydroxyflutamide (CASRN 52806-53-8, Toronto Research Chemicals) in 3-fold serial dilutions from […] together with 0.1 nM R1881. […] The DMSO vehicle concentrations were kept constant in all wells (0.1%). Following approximately 20 h of exposure to test compounds firefly luminescence was measured in a luminometer (LUMIstar® Galaxy, BMG LABTECH) using Dual-Glo® Luciferase Reagent from the Dual-Glo® Luciferase Assay System from Promega. Cell viability was measured by Renilla luminescence using Dual-Glo® Stop & Glo® Reagent from the Dual-Glo® Luciferase Assay System.

COc1ccc(C(=CC(=O)N2CCOCC2)c2ccc(Cl)cc2)cc1OC [Dimethomorph, dimethomorph]
pIC50 ([1]; read-out: AR antagonism (IC50), MDA-kb2 cells): 6.05 | IC20 ([1]; read-out: AR antagonism (IC20 µM)): 0.3 µM

N#Cc1c[nH]cc1-c1cccc2c1OC(F)(F)O2 [Fludioxonil, fludioxonil]
Cytotoxicity in H295R assay, concentrations [2]: > 12.5 µM

CC12CC1(C)C(=O)N(c1cc(Cl)cc(Cl)c1)C2=O (centres unmarked) [Procymidone, procymidone, reference compound]
pIC50 [3]: 6.40 | AR antagonism, in words ([3]; reporter gene assay): antagonized the AR
